Assay results taken from the supplement of paper PMC10307832.

Assays:
Experiment in all cases: relative viability (nuclei count vs DMSO), 5 days (fraction); higher = more cells survive
Quizartinib + AZD7762 = compound: CC(C)(C)c1cc(NC(=O)Nc2ccc(-c3cn4c(n3)sc3cc(OCCN5CCOCC5)ccc34)cc2)no1 [Quizartinib] + NC(=O)Nc1cc(-c2cccc(F)c2)sc1C(=O)N[C@H]1CCCNC1 [AZD7762] (partner 0.2 µM)
Summary of the method: (§1)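 Cells from lung cancer lines were seeded into 1536-well plates and, one day later, dosed by pin tool. Treatments were either a single drug or a fixed dose of an anchor drug with five library-drug doses (not always all listed) in √10 steps. After 5 days, nuclei were stained in a one-step fixation (final 0.05% Triton X-100, 1% formaldehyde, 1 ug/ml Hoechst) and counted on 4× images, and relative viability is the treated-to-vehicle nuclei ratio, as the median of duplicate plates.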

Quizartinib + Olaparib = compound: CC(C)(C)c1cc(NC(=O)Nc2ccc(-c3cn4c(n3)sc3cc(OCCN5CCOCC5)ccc34)cc2)no1 [Quizartinib] + O=C(c1cc(Cc2n[nH]c(=O)c3ccccc23)ccc1F)N1CCN(C(=O)C2CC2)CC1 [Olaparib] (partner 8 µM)
Summary of the method: as §1

YM155 + Foretinib = compound: COCC[n+]1c2c(n(Cc3cnccn3)c1C)C(=O)c1ccccc1C2=O [YM155] + COc1cc2c(Oc3ccc(NC(=O)C4(C(=O)Nc5ccc(F)cc5)CC4)cc3F)ccnc2cc1OCCCN1CCOCC1 [Foretinib] (partner 0.25 µM)
Summary of the method: as §1

YM155 + Crizotinib = compound: COCC[n+]1c2c(n(Cc3cnccn3)c1C)C(=O)c1ccccc1C2=O [YM155] + C[C@@H](Oc1cc(-c2cnn(C3CCNCC3)c2)cnc1N)c1c(Cl)ccc(F)c1Cl [Crizotinib] (partner 1 µM)
Summary of the method: as §1

Cell Line	relative viability (Quizartinib + AZD7762; first compound 0.001 µM)	relative viability (Quizartinib + AZD7762; first compound 0.003162 µM)	relative viability (Quizartinib + AZD7762; first compound 0.01 µM)	relative viability (Quizartinib + AZD7762; first compound 0.03162 µM)	relative viability (Quizartinib + AZD7762; first compound 0.1 µM)	relative viability (Quizartinib + Olaparib; first compound 0.001 µM)	relative viability (Quizartinib + Olaparib; first compound 0.003162 µM)	relative viability (Quizartinib + Olaparib; first compound 0.01 µM)	relative viability (Quizartinib + Olaparib; first compound 0.03162 µM)	relative viability (Quizartinib + Olaparib; first compound 0.1 µM)	relative viability (YM155 + Foretinib; first compound 0.002 µM)	relative viability (YM155 + Foretinib; first compound 0.006325 µM)	relative viability (YM155 + Foretinib; first compound 0.02 µM)	relative viability (YM155 + Foretinib; first compound 0.06325 µM)	relative viability (YM155 + Crizotinib; first compound 0.002 µM)	relative viability (YM155 + Crizotinib; first compound 0.006325 µM)	relative viability (YM155 + Crizotinib; first compound 0.02 µM)	relative viability (YM155 + Crizotinib; first compound 0.06325 µM)
201T	0.611	0.573	0.653	0.61	0.646	0.581	0.802	0.833	0.87	0.857	1.16	1.11	1.05	1.16	0.98	1	1.01	1.03
A549	–	–	–	–	–	–	0.327	0.378	0.257	0.439	0.923	0.932	1.1	0.624	0.717	0.592	0.654	0.142
A-427	0.467	0.676	0.722	0.639	0.718	0.736	0.719	0.687	0.586	0.711	1.08	0.984	0.976	1.05	0.959	0.839	0.89	0.865
ABC-1	0.717	0.783	0.784	0.913	0.827	–	0.807	0.845	0.911	0.956	1.03	0.824	0.206	0.2	0.844	0.341	0.166	0.15
BEN	0.66	0.766	0.563	0.582	0.676	1.11	1.02	0.991	0.841	1.02	0.622	0.716	0.804	0.645	0.873	0.987	0.863	1.05
CAL-12T	0.632	0.663	0.759	0.495	0.689	0.617	0.76	0.674	0.594	0.841	1.14	1.16	0.928	0.587	0.608	0.696	0.551	0.409
COR-L23	–	–	–	–	–	0.34	0.356	0.319	0.274	0.247	0.941	0.866	0.658	0.244	0.649	0.569	0.403	0.105
COR-L 105	–	–	–	–	–	0.705	0.795	0.65	–	0.863	0.994	1.02	0.848	0.733	0.907	0.807	0.591	0.385
Calu-6	–	–	–	–	–	0.604	0.549	0.512	0.492	0.64	0.882	0.845	0.727	0.0962	0.728	0.776	0.349	0.135
ChaGo-K-1	–	0.841	0.981	0.84	0.932	–	0.415	0.463	0.45	0.447	0.854	0.984	0.926	0.854	1.1	1.06	1.17	0.784
EBC-1	–	–	–	–	–	0.732	0.68	0.803	0.626	0.754	0.0935	0.0954	0.0823	0.089	0.186	0.193	0.206	0.202
EKVX	–	0.621	0.744	0.67	0.841	–	0.821	0.886	0.904	1.01	0.858	0.757	1.32	0.69	0.834	1.04	0.919	0.839
EMC-BAC-2	0.909	1.21	1.16	–	1.19	0.468	0.441	0.524	–	0.536	1.03	0.986	0.966	0.95	0.786	0.765	0.758	0.7
EPLC-272H	0.287	0.325	0.258	0.208	0.231	0.946	0.635	0.861	0.658	0.434	0.694	0.71	0.849	0.735	0.692	0.814	0.952	1.06
H3255	0.905	0.894	0.911	0.911	1.03	0.516	0.552	0.565	0.525	0.57	0.917	0.896	0.998	1.07	0.836	0.874	0.87	0.874
HARA	0.401	0.193	0.515	0.26	0.334	0.854	0.803	0.68	0.996	0.759	0.892	1.03	0.94	1.04	1.04	1.13	1.09	0.995
HCC-15	1.35	1.13	0.951	1.14	0.958	0.684	0.685	0.676	0.641	0.69	0.992	1.05	0.888	0.515	0.747	0.887	0.815	0.711
